Like-named read-outs stand apart in the source and are kept apart here.
Tests used:
[1] = tested on: blackgrass (Alopecurus myosuroides); assay: Test A postemergence, blackgrass; type: in vivo; conditions: Alopecurus myosuroides, post-emergence, 240 h, Postemergence, 0 to 100 scale (0 no effect, 100 complete control); for pest or weed control at 125 g/ha: 125 g ai/ha; for pest or weed control at 500 g/ha: 500 g ai/ha
How it was run: (§1)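 Compounds in non-phytotoxic solvent with surfactant. Soil: loam/sand. Preemergence via directed soil spray after seeding; postemergence on seedlings 2–10 cm, one- to two-leaf.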

rice (Oryza sativa) = assay: Test B flooded paddy test, rice; conditions: 336 h, read-out: Plant response rating, Rice
[2] = tested on: Foxtail, Giant (giant foxtail, Setaria faberi); assay: Test A preemergence, Foxtail, Giant; type: in vivo; conditions: Setaria faberi, pre-emergence, 240 h, Preemergence; for pest or weed control at 125 g/ha: 125 g ai/ha; for pest or weed control at 500 g/ha: 500 g ai/ha
How it was run: as §1

[3] = tested on: barnyardgrass (Echinochloa crus-galli); assay: Test B flooded paddy test, barnyardgrass; conditions: 336 h, read-out: Plant response rating, Barnyardgrass
[4] = tested on: Foxtail, Giant (giant foxtail, Setaria faberi); assay: Test A postemergence, Foxtail, Giant; type: in vivo; conditions: Setaria faberi, post-emergence, 240 h, Postemergence, 0 to 100 scale (0 no effect, 100 complete control); for pest or weed control at 125 g/ha: 125 g ai/ha; for pest or weed control at 500 g/ha: 500 g ai/ha
How it was run: as §1

[5] = read-out: Plant response rating, Blackgrass
[6] = visual injury approx. 10 days, read-out: Plant response rating, Blackgrass
[7] = visual injury, 0 to 100 scale (0 no effect, 100 complete control), approx. 10 days, read-out: Plant response rating, Foxtail, Giant
[8] = visual injury on 0 to 100 scale (0 no effect, 100 complete control), approximately 10 days, read-out: Foxtail, Giant plant response rating
[9] = read-out: Plant response rating, Foxtail, Giant
[10] = visual injury approx. 10 days, read-out: Plant response rating, Foxtail, Giant
[11] = visual injury vs untreated controls after approx. 10 days, read-out: Blackgrass plant response rating
[12] = 0 to 100 scale (0 no effect, 100 complete control), read-out: Plant response rating, Foxtail, Giant
[13] = visual injury vs untreated controls after approx. 10 days, read-out: Foxtail, Giant plant response rating
[14] = visual injury, approx. 10 days, read-out: Plant response rating, Blackgrass
[15] = visual injury, approx. 10 days, read-out: Plant response rating, Foxtail, Giant

| Compound | pest or weed control at 125 g/ha [1, 5] | pest or weed control at 500 g/ha [1, 6] | plant injury at 250 g/ha (rice (Oryza sativa)) | pest or weed control at 125 g/ha [2, 7] | pest or weed control at 500 g/ha [2, 8] | pest or weed control at 250 g/ha [3] | pest or weed control at 125 g/ha [4, 9] | pest or weed control at 500 g/ha [4, 10] | pest or weed control at 125 g/ha [1, 6] | pest or weed control at 500 g/ha [1, 11] | pest or weed control at 125 g/ha [2, 8] | pest or weed control at 500 g/ha [2, 12] | pest or weed control at 125 g/ha [4, 10] | pest or weed control at 500 g/ha [4, 13] | pest or weed control at 500 g/ha [1, 14] | pest or weed control at 500 g/ha [4, 15] |
| --- | --- | --- | --- | --- | --- | --- | --- | --- | --- | --- | --- | --- | --- | --- | --- | --- |
| Cc1cc(C)c(C(=O)N2CCC(F)(F)CC2)cc1NS(=O)(=O)C(F)(F)F [Compound 241, N-[5-[(4,4-Difluoro-1-piperidinyl)carbonyl]-2,4-dimethylphenyl]-1,1,1-trifluoromethanesulfonamide] | 0% | 80% | 25% | 80% | 100% | 25% | 0% | 30% |  |  |  |  |  |  |  |  |
| Cc1cc(C)c(N(COC(=O)C(C)(C)C)S(=O)(=O)C(F)(F)F)cc1C1=NOC2(CCCC2)C1 [Compound 140, [[2,4-Dimethyl-5-(1-oxa-2-azaspiro[4.4]non-2-en-3-yl)phenyl][(trifluoromethyl)sulfonyl]amino]methyl 2,2-dimethylpropanoate] |  |  | 0% |  |  | 95% |  |  | 30% | 30% | 20% | 90% | 30% | 90% |  |  |
| Cc1cc(Cl)c(NS(=O)(=O)C(F)(F)F)cc1C(=O)N1CCC(F)(F)CC1 [Compound 229, N-[2-Chloro-5-[(4,4-difluoro-1-piperidinyl)carbonyl]-4-methylphenyl]-1,1,1-trifluoromethanesulfonamide] | 20% |  | 10% | 60% | 100% | 10% | 50% |  |  | 70% |  |  |  | 90% |  |  |
| Cc1cc(C)c(C2=NOC3(CCCC3)C2)cc1NS(=O)(=O)C(F)(F)F [Compound 207, N-[2,4-Dimethyl-5-(1-oxa-2-azaspiro[4.4]non-2-en-3-yl)phenyl]-1,1,1-trifluoromethanesulfonamide] | 20% |  | 0% | 90% |  | 75% | 50% |  |  | 60% |  | 100% |  | 90% |  |  |
| Cc1c(NS(=O)(=O)C(F)(F)F)cc(C(=O)N2CCOCC2)c(C)c1F [Compound 190, 1,1,1-Trifluoro-N-[3-fluoro-2,4-dimethyl-5-(4-morpholinylcarbonyl)phenyl]methanesulfonamide] | 10% |  | 0% | 90% |  | 0% | 20% |  |  | 40% |  | 100% |  | 80% |  |  |
| Cc1cc(C)c(C2=NO[C@@H]3CCC[C@H]23)cc1NS(=O)(=O)C(F)(F)F [Compound 103, N-[2,4-Dimethyl-5-[(3aR,6aR)-3a,5,6,6a-tetrahydro-4H-cyclopent[d]isoxazol-3-yl]phenyl]-1,1,1-trifluoromethanesulfonamide] |  |  | 25% |  |  | 85% |  |  | 0% | 30% | 90% | 100% | 30% | 70% |  |  |
| Cc1cc(C)c(N(COC(=O)C(C)(C)C)S(=O)(=O)C(F)(F)F)cc1C1=NOC2(CCCCC2)C1 [Compound 159, [[2,4-Dimethyl-5-(1-oxa-2-azaspiro[4.5]dec-2-en-3-yl)phenyl][(trifluoromethyl)sulfonyl]amino]methyl 2,2-dimethylpropanoate] | 0% |  | 0% |  |  | 65% | 0% |  |  | 20% | 30% | 70% |  | 30% |  |  |
| Cc1c(NS(=O)(=O)C(F)(F)F)cc(C(=O)N(C)C)c(C)c1F [Compound 128, 3-Fluoro-N,N,2,4-tetramethyl-5-[[(trifluoromethyl)sulfonyl]amino]benzamide] |  |  | 0% |  |  | 30% |  |  | 10% | 30% | 50% | 100% | 10% | 50% |  |  |
| CCc1cc(-c2cc(NS(=O)(=O)C(F)(F)F)c(C)cc2C)c(=O)n(C)n1 [Compound 34, N-[5-(6-Ethyl-2,3-dihydro-2-methyl-3-oxo-4-pyridazinyl)-2,4-dimethylphenyl]-1,1,1-trifluoromethanesulfonamide] |  |  | 0% |  |  | 0% |  |  | 0% |  | 0% | 30% | 0% |  | 0% | 0% |
| Cc1cc(Cl)c(NS(=O)(=O)C(F)(F)F)cc1C(=O)N1CCOCC1 [Compound 16, N-[2-Chloro-4-methyl-5-(4-morpholinylcarbonyl)phenyl]-1,1,1-trifluoromethanesulfonamide] |  |  | 0% |  |  | 25% |  |  | 50% |  | 30% | 100% | 40% |  | 40% | 90% |
| Cc1cc(C)c(C2=NOC3CCOCC23)cc1NS(=O)(=O)C(F)(F)F (stereo not drawn) [Compound 120, N-[2,4-Dimethyl-5-(3a,6,7,7a-tetrahydro-4H-pyrano[3,4-d]isoxazol-3-yl)phenyl]-1,1,1-trifluoromethanesulfonamide] |  |  | 0% |  |  | 0% |  |  | 20% | 70% | 100% | 100% | 40% | 90% |  |  |
| Cc1cc(Cl)c(NS(=O)(=O)C(F)(F)F)cc1C(=O)N1CCCCC1 [Compound 18, N-[2-Chloro-4-methyl-5-(1-piperidinylcarbonyl)phenyl]-1,1,1-trifluoromethanesulfonamide] |  |  | 0% |  |  | 0% |  |  | 0% |  | 100% | 100% | 20% |  | 0% | 70% |
| Cc1cc(C)c(N(COC(=O)C(C)(C)C)S(=O)(=O)C(F)(F)F)cc1C1=NO[C@@H]2CCC[C@H]12 [Compound 100, [[2,4-Dimethyl-5-[(3aR,6aR)-3a,5,6,6a-tetrahydro-4H-cyclopent[d]isoxazol-3-yl]phenyl][(trifluoromethyl)sulfonyl]amino]methyl 2,2-dimethylpropanoate] |  |  | 20% |  |  | 90% |  |  | 0% | 0% | 40% | 90% | 10% | 40% |  |  |
| Cc1cc(C)c(C2=NOC3COCCC23)cc1NS(=O)(=O)C(F)(F)F (stereo not drawn) [Compound 121, N-[2,4-Dimethyl-5-(3a,4,7,7a-tetrahydro-5H-pyrano[4,3-d]isoxazol-3-yl)phenyl]-1,1,1-trifluoromethanesulfonamide] |  |  | 20% |  |  | 40% |  |  | 40% | 80% | 100% | 100% | 50% | 90% |  |  |
| Cc1cc(C)c(C2=NOC3(CCCCC3)C2)cc1NS(=O)(=O)C(F)(F)F [Compound 197, N-[2,4-Dimethyl-5-(1-oxa-2-azaspiro[4.5]dec-2-en-3-yl)phenyl]-1,1,1-trifluoromethanesulfonamide] | 40% |  | 0% | 100% |  | 95% | 80% |  |  | 60% |  | 100% |  | 90% |  |  |
